Values joined by “and” are separate entries in the source; they are usually repeats but may differ in a detail not shown here. Equal entries are not always repeated.
Columns and labels:
[1] = system: T cell receptor repertoire; experiment: RNA-based T cell receptor repertoire sequencing of ALS patient PBMC pre- and post-etanercept therapy
[2] = system: peripheral blood mononuclear cells from ALS patient; experiment: Autonomous cytokine secretion of ALS patient PBMC before and during etanercept therapy; format: in vivo, human; settings: etanercept 50 mg per week s.c., PBMC incubated 24 hr without stimulation, similar on three values over three months
Description: We have observed that ALS patients can manifest autonomous inflammatory cytokine secretion when incubation of T cell- and monocyte-containing inoculum occurs for 24 hours in X-Vivo 20 media supplemented only with 5% human serum (FIG. 3). FIG. 3 depicts ALS patient and normal control autonomous cytokine secretion. ALS patient (“ALS”) and normal control (“NC”) peripheral blood mononuclear cells were either not separated (FIG. 3, right panel; mixture of T cells and monocytes), or separated into CD14^+ monocyte cells (FIG. 3, left panel) or CD3^+ T cells (FIG. 3, middle panel). The cells were incubated for 24 hours in media without any stimulation additives. After 24 hours, the supernatant was harvested and tested for cytokine content; TNF-α content is shown, with result described as pg per ml per 1×10^6 cells per 24 hours. […]
We reasoned that detection of autonomous secretion of inflammatory cytokines will have potential clinical implications, for example, in the monitoring of ALS disease response to investigational therapy. Towards this aim, we evaluated cytokine secretion in an ALS patient prior to and then after experimental therapy with the anti-TNF-α soluble recombinant receptor, etancercept (Enbrel®); there have been no reports of clinical trials evaluating etanercept therapy of ALS. […]

PBMC = experiment: CD40 ligand-driven cytokine secretion of PBMC (24 h culture, multiplex assay); format: cell-based; settings: X-Vivo 20 media with 5% human serum
From the text: Given this possibility, we evaluated whether simple addition of the recombinant human (rhu) CD40L molecule might uncover autonomous inflammatory cytokine secretion in ALS patients. There are no reports in the literature to date pertaining to CD40L-stimulation of ALS patient PBMC. […] Therefore, the detection of the inflammatory subset of ALS can be expanded by inclusion of patients that secrete cytokines autonomously and those patients that secrete inflammatory cytokines after CD40L stimulation. Patient hypersensitivity to CD40 ligand is driven by an imbalance in the post-CD40 receptor signaling pathway, with increased TRAF6 contribution to the signaling cascade during neuro-inflammation; importantly, the TRAF2 and TRAF3 family members inhibit post-CD40 signaling. As such, given this information, our monitoring method will also include Western Blot analyses for the detection of ALS patient balance of the TRAF family of proteins.
In FIG. 6, a sibling of a subject who was a carrier for the C9orf72 mutation was evaluated for autonomous cytokine secretion. […] This illustrates the importance of both neurologic and immunologic risk factors. […]

[3] = individual clones, post- versus pre-etanercept

With etanercept the “TCR clonality, Diversity Index (CHAOE) after therapy” value ([1]; ALS patient post-therapy, pre-therapy sample approximately 650,000, normal controls ~300,000) was “approximately 599,000”, the “reduction in TCR clonality in post-therapy sample” value ([1]; ALS patient, post- versus pre-therapy) was ~10% and the “T cell clonal contraction” value [1, 3] was “more than 4 log and ~4 log”. For the same molecule, the “T cell clonal expansion” value [1, 3] was “more than 4 log and ~4 log”, the “post-treatment frequency of contracted T cell clones” value ([1]; several clones, pre-etanercept frequencies 259 to 598) was 0.01 and the “autonomous secretion of IL-6” value [2] was “reduced”. For the same molecule, the “autonomous secretion of TNF-α” value [2] was “reduced”.

B1: rhu CD40L: recombinant human (rhu) CD40L molecule (protein, UniProt P29965 113-261, looked up)
CD40 ligand, soluble form: MQKGDQNPQIAAHVISEASSKTTSVLQWAEKGYYTMSNNLVTLENGKQLTVKRQGLYYIYAQVTFCSNREASSQAPFIASLCLKSPGRFERILLRAANTHSSAKPCGQQSIHLGGVFELQPGASVFVNVTDPSQVSHGTGFTSFGLLKL
With B1 the inflammatory cytokine production (PBMC; PBMC from an ALS patient) was “can induce inflammatory cytokine production” and the “cytokine secretion after stimulation with CD40L” value (PBMC; PBMC from sibling of a C9orf72 mutation carrier) was “high levels of cytokine secretion”.
